Eight molecules from ChEMBL document CHEMBL1201862, “PubChem BioAssay data set” (2004) can be followed below.

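Step 1: Grow cells in 96-well plates. Step 2: Expose to compound for 48 hours at 5 concentrations. Step 3: Interpolate endpoints linearly; if unreached, use highest concentration. GI50 is the concentration that inhibits growth by half.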 Calls of active or inactive are those of the source. No stated cut-off is given here; in the data, active = GI50 up to about 1.1 µM and inactive = higher.

What all share (assay): NCI tumour cell line growth inhibition, 48 h
Test [1] relates to OVCAR-4.
The subject of test [2] is U-251.
Test [3] deals with HCT-15.
The test system of test [4] is T47D.
In test [5] the test system is NCI-H226.
For test [6], the system named is IGROV-1.
Test [7] relates to NCI/ADR-RES.
Test [8] deals with HCC 2998.
The subject of test [9] is HT-29.
Test [10] deals with SR.
Test [11] deals with SF-539.
Test [12] deals with MDA-MB-435.
Test [13] has as its system M14.
Test [14] relates to COLO 205.
The subject of test [15] is OVCAR-5.
The test system of test [16] is SN12C.
Test [17] concerns SK-MEL-2.
In test [18] the test system is EKVX.

For the molecule `COc1cccc(OC)c1/C=C1\OC(=O)c2cccc(OC)c21`, the GI50 is > 30.1 µM (inactive) in test [1]; 3.32 µM (inactive) in test [2]; 2.24 µM in test [3]; 5.33 µM (inactive) in [4]; 3.84 µM (inactive) in [5]; 4.71 µM (inactive) in test [6]. Moreover, the GI50 is 3.51 µM (inactive) in [7]; 3.16 µM (inactive) in test [8]; 2.11 µM (inactive) in [9]; 0.92 µM (active) in [10]; 2.3 µM (inactive) in test [11]; 0.526 µM (active) in test [12]. Further, the GI50 in test [13] was 4.1 µM (inactive); in test [14], 2.88 µM (inactive); in test [15], 13.2 µM (inactive); in test [16], 20 µM (inactive); in [17], 4.14 µM (inactive); in test [18], 10.3 µM (inactive).

In the case of `N#CC(c1ccccc1)c1cccc2ccccc12` (stereo not drawn), the GI50 was 47.5 µM (inactive) in test [1]; 48.9 µM (inactive) in test [2]; 37.9 µM in test [3]; 38.5 µM (inactive) in test [4]; > 100 µM (inactive) in [5]; 19.9 µM (inactive) in test [6]. The GI50 in test [7] is 39.8 µM (inactive); in [8], 36.7 µM (inactive); in [9] it was 43.2 µM (inactive); in test [10], 12.3 µM (inactive); in test [11], 30.6 µM (inactive); in test [12], 20.2 µM (inactive). Besides, the GI50 in test [13] was 30.6 µM (inactive); in test [14], 40.8 µM (inactive); in [15], 85.1 µM (inactive); in test [16] it was 68.4 µM (inactive); in [17] it was 25.6 µM (inactive); in test [18] it was 37.8 µM (inactive).

Take `CCOC(=O)N/N=C(\CC)NO`: the GI50 was > 100 µM (inactive) in test [1]; > 100 µM (inactive) in [2]; above 100 µM in test [3]; > 100 µM (inactive) in [4]; > 100 µM (inactive) in [5]; > 100 µM (inactive) in [6]. For the same molecule, the GI50 in test [7], in test [8], in test [9], in [10], in [11] and in test [12] was > 100 µM (inactive) in each case. The GI50 in [14], in [15], in test [16], in test [17] and in test [18] was > 100 µM (inactive) in each case.

As for `CCOC(=O)C1=NN(c2ccccc2)C(=O)/C1=C\NC(=S)C(N)=S`, the GI50 was 40.9 µM (inactive) in [1]; 42.3 µM (inactive) in test [2]; 34.1 µM in test [3]; 13.1 µM (inactive) in [4]; 54.5 µM (inactive) in test [5]; 42.6 µM (inactive) in test [6]. The GI50 in test [7] was > 100 µM (inactive); in test [8] it was 43.4 µM (inactive); in test [9], 41.8 µM (inactive); in [10], 35.2 µM (inactive); in [11], 23.2 µM (inactive); in test [12], 33.8 µM (inactive). In addition, the GI50 was 26.5 µM (inactive) in test [13]; 28.1 µM (inactive) in test [14]; 38.6 µM (inactive) in test [15]; 37.8 µM (inactive) in test [16]; 43.1 µM (inactive) in test [17]; 27.2 µM (inactive) in test [18].

In the case of `Nn1c(SCC(=O)NCc2ccccc2)nc2ccccc2c1=O`, the GI50 was 54.2 µM (inactive) in test [1]; 88.9 µM (inactive) in test [2]; 67.8 µM in [3]; > 100 µM (inactive) in [4]; 79.1 µM (inactive) in test [5]; 53.3 µM (inactive) in test [6]. In addition, the GI50 in test [7] was 36.5 µM (inactive); in test [8], 44.8 µM (inactive); in [9], 45.4 µM (inactive); in [10] it was 21.1 µM (inactive); in test [11], > 100 µM (inactive); in test [12], 45.8 µM (inactive). The GI50 was 36.6 µM (inactive) in test [13]; 48.5 µM (inactive) in test [14]; > 100 µM (inactive) in test [15]; > 100 µM (inactive) in [16]; 76.7 µM (inactive) in test [17]; 64.3 µM (inactive) in test [18].

In the case of `COC(=O)c1c(OC(C)=O)ccc2c1c1c(n2C)C(=O)c2ccccc2C1=O`, the GI50 in test [1] is 28.6 µM (inactive); in [2], 31.3 µM (inactive); in test [3], 24.8 µM; in test [4], 4.81 µM (inactive); in [5] it was 38.9 µM (inactive); in test [6], 3.86 µM (inactive). In addition, the GI50 in test [7] is 33.9 µM (inactive); in [8], 26.8 µM (inactive); in [9], 46.8 µM (inactive); in test [10], 31.1 µM (inactive); in test [11] it was 19.1 µM (inactive); in [12], 23.9 µM (inactive). Also, the GI50 in test [13] was 35.2 µM (inactive); in test [14], 55.3 µM (inactive); in test [15], 34.3 µM (inactive); in test [16], 39.6 µM (inactive); in test [17], 23.2 µM (inactive); in [18], 28.8 µM (inactive).

For `Nc1ncnc2c1ncn2C1OC(CO)=CC1O` (stereo not drawn), the GI50 in test [1] was > 37.5 µM (inactive); in test [2], > 37.5 µM (inactive); in [3] it was above 37.5 µM; in test [4] it was > 37.5 µM (inactive); in [5], > 37.5 µM (inactive); in [6], > 37.5 µM (inactive). Besides, the GI50 in test [7], in test [8], in test [9], in [10], in [11] and in [12] was > 37.5 µM (inactive) throughout. Further, the GI50 in test [13], in test [14], in [15], in [16], in test [17] and in test [18] was > 37.5 µM (inactive) throughout.

As for `CN(NC(=O)c1ccco1)C1=NCCCCN1`, the GI50 in [1] is > 100 µM (inactive); in test [2], > 100 µM (inactive); in [3], above 100 µM; in test [4] it was > 100 µM (inactive); in [5] it was > 100 µM (inactive); in test [6], > 100 µM (inactive). Also, the GI50 in test [7], in test [8], in [9], in [10], in test [11] and in test [12] was > 100 µM (inactive) throughout. In addition, the GI50 in test [13], in test [14], in test [15], in test [16], in test [17] and in [18] was > 100 µM (inactive) each time.
